Laboratory results reported in publication PMC12631437, “Evaluation of the Activity of 4‑Quinolones against Multi-Life Stages of Plasmodium spp” (ACS Omega, 2025).
Values joined by “and” are separate entries in the source; they are usually repeats but may differ in a detail not shown here. Equal entries are not always repeated.

Columns and labels:
[1] = test system: Plasmodium over mammalian cells; settings: specificity for Plasmodium over mammalian cells; previous studies; cited from earlier work
[2] = test system: P. berghei sexual phases in An. stephensi; experiment: In vivo transmission-blocking assay, P. berghei infected CD1 mice, An. stephensi; design: species or system Plasmodium berghei; settings: 2 doses of 50 mg/kg 12 h apart
Protocol: For this assay, a colony of An. stephensi was used. The lab-reared An. stephensi was kept under controlled conditions, with a temperature of 26 °C ± 1 °C, a 12/12 h light/dark cycle, a relative humidity of 70% ± 10%, and fed a 30% sugar solution as needed.
Female CD1 mice (4 to 6 weeks old) were infected by intraperitoneal inoculation (i.p.) containing 10 million erythrocytes infected with P. berghei expressing the GFP fluorescent protein. After 4 days, when parasites in the sexual stages were detected via Giemsa-stained blood smears, mice with similar gametocytemia and parasitemia were randomly divided into three groups of two animals each. The groups of two mices were treated orally with compound 1 at two doses of 50 mg/kg, spaced 12 h apart. […] Following the second dose, mice were anesthetized and placed in individual cages containing approximately 50 female A. stephensi mosquitoes, which had been starved for 24 h before the assay. Blood feeding lasted for 30 min, after which unfed mosquitoes were removed. Engorged females were maintained in an insectary at 21 ± 1 °C and 60% relative humidity, receiving a 30% glucose solution.
A group of 10 mosquitoes was set aside to assess sporozoite development in salivary glands, following a protocol similar to the one described previously, with dissections performed 21 days postblood meal. Additionally, 10 μL of mouse blood was collected immediately after treatment with the compounds and incubated at room temperature for 15 min. Exflagellation was observed under optical microscopy to evaluate the effect of 4-quinolone-derived molecules on microgametocyte activity.

[3] = test system: late-stage gametocytes (IV and V) of P. falciparum NF54; experiment: Late-stage gametocyte bioluminescence assay, luciferase-expressing NF54; assay type: cell-based, Plasmodium falciparum; settings: for Pf gametocytes inhibition: 1 μM; for inhibition at 20 µM: Plasmodium falciparum, NF54, 48 h, read-out: Pf gametocytes Inhibition (%)
Protocol: For the in vitro culture of sexual stages of P. falciparum NF54 Luminescent strain, the Tripathi protocol was followed.
Parasite asexual stages were synchronized, and ring-stage parasites were incubated with a parasite-conditioned medium to induce stress and trigger gametocyte induction. After sexually committed parasites invaded new erythrocytes, N-acetylglucosamine was added to prevent further invasion and clear residual asexual parasites.
When a predominance of late stage (IV and V) gametocytes was identified and counted together, , the MACS magnetic system was used for gametocyte enrichment, as previously described. ,
The column content was eluted with RPMI medium into a 15 mL Falcon tube until translucent medium appeared, yielding ∼ 10 mL of eluate. The sample was centrifuged at 1500 rpm for 5 min at 37 °C, the supernatant discarded, and the pellet washed with preheated RPMI medium containing albumax. A 1 μL pellet sample was used to prepare a Giemsa-stained smear for gametocytaemia determination by counting 2000 cells. The gametocytemia for each assay were 71%, 64% and 31%. The remaining pellet was adjusted to 1 mL with RPMI medium containing 10% human serum at 37 °C. Total cell counts were performed using a Neubauer chamber with a 10X diluted sample.
Each well contained 200,000 gametocytes in 150 μL without erythrocytes. After 48 h of incubation, a luciferase kit (Promega) was used to reveal the assay. Eighty microliters of supernatant were discarded, and the pellet was homogenized in the remaining content. Forty microliters of the sample were transferred to a clear 96-well plate containing lysis solution (1X), gently mixed, and moved to a white-bottomed 96-well plate. Luciferase (40 μL) was added, and luminescence was measured using a microplate reader with a 10-s integration time.

[4] = test system: P. falciparum DHODH strain; experiment: SYBR Green growth assay, asexual blood stages, DHODH resistant mutant; assay type: cell-based, Plasmodium falciparum
Protocol: Healthy blood samples for parasite culture were obtained from voluntary donors (approved under protocol #28176720.9.0000.0011), processed to remove white blood cells, and stored at 2 °C–8 °C for up to 15 days. Parasite strains SB1-A6, 7G8, V1/S, and HB3 were acquired from BEI-MR4, while the ATQ R1 strain, carrying a V259L gene mutation, was generated in-house. Infected erythrocytes were cultured in RPMI 1640 medium supplemented with Hepes, sodium bicarbonate, glucose, Albumax, and gentamicin, […], and incubated in a 5% CO2, 5% O2, and 90% N2 gas mixture at 37 °C with daily medium changes. Parasitemia was monitored using Giemsa-stained blood smears.
Bioassays were conducted with synchronized ring-stage parasites using sorbitol synchronization. Antimalarial compounds were evaluated in 96-well plates, and parasite growth was assessed using a SYBR Green-based fluorescence assay The assays were conducted when the parasite quantity reached at least 70% of the ring stage. Compounds were initially added at specific concentrations in the first wells, followed by serial dilution (1:2) ranging from 20 μM to 0.009 μM. Subsequently, a solution containing parasites in RPMI medium at a hematocrit of 2% was added to each well, and the parasites were then incubated for 72 h.
To assess parasite growth, the culture medium was replaced with a lysis solution (Trisbase: 49.31%, EDTA: 30.00%, Saponin: 0.16%, Triton: 0.02%) containing the fluorescent dye SYBR Green (Sigma). After a 30 min incubation, fluorescence readings were taken to determine the 50% inhibitory concentration (IC50) of parasite growth. The IC50 values were determined using concentration–response curves generated in GraphPad 8 software. Additionally, the resistance index was calculated by comparing IC50 values obtained for the sensitive 3D7 strain with those of the resistant strains.

[5] = test system: P. vivax ookinetes; experiment: Ex vivo P. vivax ookinete formation assay with patient isolates; assay type: cell-based, Plasmodium vivax; settings: 24 h
Protocol: Participants were recruited from patients diagnosed with P. vivax malaria via Giemsa-stained blood smears at CEPEM in Porto Velho, Rondônia, Brazil (#28176720.9.0000.0011). Criteria included: P. vivax parasitemia >2000 parasites/μL, age 18–85, no severe malaria, no concomitant diseases, nonpregnant, and consent to study procedures. Approximately 10 mL of venous blood was collected into heparin-coated vials, maintained at 37 °C, and transported to PIVEM for DMFA. Malaria treatment followed Brazilian Ministry of Health guidelines and was unaffected by study participation. […] Erythrocytes were washed with incomplete RPMI-1640 medium by centrifugation at 1500 rpm for 10 min to remove leukocytes. […] The sample was centrifuged once at 450 g for 15 min without a brake. After centrifugation, the pellet remaining at the interface was collected and washed twice at 2000 g for 5 min. […] The parasites were incubated for 24 h at a temperature of 21–24 °C. After this period, the activity of the compounds was determined by microscopy, counting 100 fields to determine the parasitemia per μL in each sample, and counting the mature and immature ookinetes. […] Red blood cells were then washed with incomplete RPMI-1640 medium through centrifugation at 1500 rpm for 10 min to remove leukocytes. […] The sample was centrifuged once at 2000 rpm for 15 min without brake. After centrifugation, the remaining pellet at the interface was collected and washed twice at 2000 rpm for 5 min. […] Parasites were incubated for 24 h at a temperature of 21–24 °C. After this period, compound activity was determined by microscopy counting in 100 fields to determine parasitemia per μL in each sample.

[6] = 20 μM, 48 h, late-stage (IV and V) gametocytes
[7] = Plasmodium vivax, read-out: P. vivax ookinete formation inhibition (median)

| Structure (SMILES) | selectivity index (SI) [1] | Prevalence of infection in An. stephensi mosquitoes (Positive) [2] | reduction in the infection rate (salivary glands) ([2]; 21 days postinfection) | reduction in the number of P. berghei sporozoites (in vivo) ([2]; 21 days postinfection, 50 mg/kg) | reduction in male exflagellation centers (in vivo) ([2]; blood at mosquito feeding, 50 mg/kg) | Pf gametocytes inhibition [3] | inhibition at 20 µM [3, 6] | IC50 ([4]; Plasmodium falciparum, 72 h) | RI (resistance index) ([4]; ratio of IC50 DHODH to 3D7) | inhibition at 0.4 µM ([5]; Plasmodium vivax, 0.4 μM, read-out: P. vivax ookinete formation inhibition (median)) | inhibition at 2 µM [5, 7] | inhibition at 10 µM ([5]; Plasmodium vivax, 10 μM, n = 6 patients, read-out: P. vivax ookinete formation inhibition (median)) | Pf gametocytes Inhibition (%) [3, 6] | P. vivax ookinete formation inhibition (median) ([5]; 0.4 μM) |
| --- | --- | --- | --- | --- | --- | --- | --- | --- | --- | --- | --- | --- | --- | --- |
| CCCCCCCCCCCc1cc(=O)c2ccccc2[nH]1 [compound 1, 2-Undecilquinolin-4(1H)-one] | > 120 | 70% | 91% | 91,30% and 91% | 85,17% and 85% | no activity | 44 ± 4% | 60 ± 10 nM | 0.3 | 70% | 84% | 97% | – | – |
| CCCCCCOc1ccc(-c2cc(=O)c3ccccc3[nH]2)cc1 [compound 6, 2-(4-(Hexyloxy)-phenyl)-quinolin-4(1H)-one] | – | – | – | – | – | no activity | 64% | – | – | – | 83% | – | 68 ± 25% | no activity |
